# Laboratory results taken from ChEMBL document CHEMBL1140165, “Rotationally constrained 2,4-diamino-5,6-disubstituted pyrimidines: a new class of histamine H4 receptor antagonists with improved druglikeness and in vivo efficacy in pain and inflammation models” (J Med Chem, 2008).
# Calls of active or inactive are those of the source.
# Columns and labels:
# Liver microsomes [1] = assay: Metabolic stability in human liver microsomes; format: ADME, Microsome
# Rattus norvegicus [2] = assay: Antinociceptive efficacy against von Frey hair mechanically stimulated post-surgical pain after skin incision in rat assessed as withdrawal threshold at 30 umol/kg, ip; format: functional
# Homo sapiens = species: Homo sapiens; assay: Selectivity ratio of Ki for human histamine H4 receptor to Ki for human histamine H3 receptor
# [3] = Protein binding in rat; format: ADME, organism-based; settings: in vivo, read-out: PB (converted)
# [4] = molecular target: Prostaglandin G/H synthase 1 (Homo sapiens) (UniProt P23219); assay: Binding affinity at COX1
# Chain of Prostaglandin G/H synthase 1 (Homo sapiens) (P23219 whole entry): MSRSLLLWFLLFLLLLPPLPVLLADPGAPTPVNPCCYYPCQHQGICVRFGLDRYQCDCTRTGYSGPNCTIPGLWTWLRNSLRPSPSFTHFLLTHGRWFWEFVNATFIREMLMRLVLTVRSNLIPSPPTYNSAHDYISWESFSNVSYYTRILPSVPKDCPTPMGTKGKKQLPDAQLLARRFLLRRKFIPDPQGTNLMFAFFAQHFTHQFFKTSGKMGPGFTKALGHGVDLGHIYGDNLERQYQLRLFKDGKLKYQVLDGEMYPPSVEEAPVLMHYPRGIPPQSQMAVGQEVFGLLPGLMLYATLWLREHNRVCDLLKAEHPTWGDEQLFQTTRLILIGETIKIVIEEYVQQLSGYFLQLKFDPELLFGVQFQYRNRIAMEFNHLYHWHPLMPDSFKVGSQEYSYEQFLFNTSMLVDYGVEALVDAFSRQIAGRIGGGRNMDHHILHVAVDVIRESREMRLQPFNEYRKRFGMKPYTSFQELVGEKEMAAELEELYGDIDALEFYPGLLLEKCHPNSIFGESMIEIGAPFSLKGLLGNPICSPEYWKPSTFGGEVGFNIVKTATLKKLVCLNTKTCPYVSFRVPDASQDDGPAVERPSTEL
# Rattus norvegicus [5] = assay: Antinociceptive efficacy against complete Freund's adjuvant-induced thermal hyperalgesia in rat assessed as withdrawal threshold at 500 umol/kg, ip after 48 hrs; format: functional
# Rattus norvegicus [6] = assay: Antinociceptive efficacy against von Frey hair mechanically stimulated post-surgical pain after skin incision in rat assessed as withdrawal threshold at 500 umol/kg, ip; format: functional
# Mus musculus [7] = assay: Antiinflammatory activity against ip dosed BALB/c mouse assessed as inhibition of zymosan-induced peritonitis after 2 hrs pretreated 30 mins before zymosan challenge; format: functional
# [8] = Metabolic stability in mouse liver microsomes; format: ADME, Microsome
# [9] = molecular target: Kappa-type opioid receptor (Homo sapiens) (UniProt P41145); assay: Binding affinity to kappa opioid receptor
# Chain of Kappa-type opioid receptor (Homo sapiens) (P41145 whole entry): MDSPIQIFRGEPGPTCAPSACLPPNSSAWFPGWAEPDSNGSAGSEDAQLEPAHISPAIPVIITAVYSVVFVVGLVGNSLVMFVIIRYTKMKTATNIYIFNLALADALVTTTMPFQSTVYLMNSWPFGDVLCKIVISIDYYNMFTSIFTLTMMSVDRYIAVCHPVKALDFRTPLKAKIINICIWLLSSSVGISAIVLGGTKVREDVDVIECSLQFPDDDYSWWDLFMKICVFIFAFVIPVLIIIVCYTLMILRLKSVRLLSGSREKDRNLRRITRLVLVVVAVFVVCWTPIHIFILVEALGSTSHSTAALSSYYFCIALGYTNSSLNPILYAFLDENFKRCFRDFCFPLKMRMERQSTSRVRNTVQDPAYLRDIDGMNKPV
# Histamine H4 receptor [10] = molecular target: T1, Histamine H4 receptor (Mus musculus, UniProt Q91ZY2); assay: Antagonist activity at mouse histamine H4 receptor expressed in HEK293 cells assessed as inhibition of histamine-induced intracellular calcium elevation by FLIPR assay; format: functional, cell-based
# T1 sequence (Q91ZY2 whole entry): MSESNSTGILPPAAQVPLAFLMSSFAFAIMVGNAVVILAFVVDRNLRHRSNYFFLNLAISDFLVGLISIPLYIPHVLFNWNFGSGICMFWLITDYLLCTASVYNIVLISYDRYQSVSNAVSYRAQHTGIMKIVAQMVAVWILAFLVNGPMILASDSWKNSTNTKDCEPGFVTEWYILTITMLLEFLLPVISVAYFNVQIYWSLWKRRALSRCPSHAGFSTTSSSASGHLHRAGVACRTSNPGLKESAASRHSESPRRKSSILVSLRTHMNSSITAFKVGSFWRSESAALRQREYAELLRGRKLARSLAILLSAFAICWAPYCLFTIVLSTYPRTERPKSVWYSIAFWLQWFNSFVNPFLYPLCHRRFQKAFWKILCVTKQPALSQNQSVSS
# [11] = molecular target: Mu-type opioid receptor (Homo sapiens) (UniProt P35372); assay: Binding affinity to mu opioid receptor
# Chain of Mu-type opioid receptor (Homo sapiens) (P35372 whole entry): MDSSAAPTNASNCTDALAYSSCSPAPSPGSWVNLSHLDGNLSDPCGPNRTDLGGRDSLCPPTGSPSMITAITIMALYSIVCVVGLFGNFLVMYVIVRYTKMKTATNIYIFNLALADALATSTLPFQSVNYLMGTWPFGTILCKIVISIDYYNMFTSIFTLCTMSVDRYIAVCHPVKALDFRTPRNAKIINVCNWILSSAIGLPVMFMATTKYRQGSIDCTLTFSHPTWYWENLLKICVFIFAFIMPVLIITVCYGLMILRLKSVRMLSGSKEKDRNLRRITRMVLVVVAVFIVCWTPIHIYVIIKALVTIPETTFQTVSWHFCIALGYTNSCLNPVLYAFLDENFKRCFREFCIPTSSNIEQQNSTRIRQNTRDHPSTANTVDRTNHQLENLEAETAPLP
# [12] = Protein binding in human; format: ADME, organism-based; settings: in vivo, read-out: PB (converted)
# Rattus norvegicus [13] = assay: Antinociceptive efficacy against complete Freund's adjuvant-induced thermal hyperalgesia in rat assessed as withdrawal threshold at 10 umol/kg, ip after 48 hrs; format: functional
# Cytochrome P450 2C9 = Cytochrome P450 2C9 (Homo sapiens, UniProt P11712); assay: Inhibition of CYP2C9 upto 10 uM; format: ADME
# Chain of Cytochrome P450 2C9 (P11712 whole entry): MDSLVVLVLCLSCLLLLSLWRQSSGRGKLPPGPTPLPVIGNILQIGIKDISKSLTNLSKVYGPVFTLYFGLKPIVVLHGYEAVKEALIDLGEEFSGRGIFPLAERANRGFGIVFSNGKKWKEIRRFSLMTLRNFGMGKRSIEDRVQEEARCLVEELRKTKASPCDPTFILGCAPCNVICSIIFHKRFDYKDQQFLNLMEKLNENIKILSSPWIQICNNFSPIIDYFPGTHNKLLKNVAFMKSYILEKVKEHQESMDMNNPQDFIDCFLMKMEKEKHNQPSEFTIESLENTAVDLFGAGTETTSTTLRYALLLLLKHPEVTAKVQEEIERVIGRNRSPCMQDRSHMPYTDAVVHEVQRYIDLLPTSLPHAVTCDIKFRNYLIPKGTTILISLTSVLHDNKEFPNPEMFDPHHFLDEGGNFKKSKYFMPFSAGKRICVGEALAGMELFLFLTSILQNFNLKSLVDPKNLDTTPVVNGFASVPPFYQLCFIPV
# Histamine H4 receptor [14] = molecular target: T2, Histamine H4 receptor (Rattus norvegicus, UniProt Q91ZY1); assay: Displacement of [3H]histamine from rat histamine H4 receptor expressed in HEK293 cells; format: cell-based
# T2 sequence (Q91ZY1 whole entry): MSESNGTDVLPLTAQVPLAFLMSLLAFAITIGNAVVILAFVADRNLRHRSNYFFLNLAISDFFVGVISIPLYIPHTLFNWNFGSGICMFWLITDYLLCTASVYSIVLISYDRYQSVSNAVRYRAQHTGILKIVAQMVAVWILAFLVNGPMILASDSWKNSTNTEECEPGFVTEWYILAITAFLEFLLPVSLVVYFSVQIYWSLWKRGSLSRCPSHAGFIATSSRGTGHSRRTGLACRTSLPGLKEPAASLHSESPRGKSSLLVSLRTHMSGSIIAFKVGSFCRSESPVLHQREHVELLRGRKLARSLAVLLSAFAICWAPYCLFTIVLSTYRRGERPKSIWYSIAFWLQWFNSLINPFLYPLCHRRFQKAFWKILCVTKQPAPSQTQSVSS
# [15] = Selectivity ratio of Ki for human histamine H4 receptor to Ki for 5HT1D receptor
# Cytochrome P450 2D6 = Cytochrome P450 2D6 (Homo sapiens, UniProt P10635); assay: Inhibition of CYP2D6 upto 10 uM; format: ADME
# Chain of Cytochrome P450 2D6 (P10635 whole entry): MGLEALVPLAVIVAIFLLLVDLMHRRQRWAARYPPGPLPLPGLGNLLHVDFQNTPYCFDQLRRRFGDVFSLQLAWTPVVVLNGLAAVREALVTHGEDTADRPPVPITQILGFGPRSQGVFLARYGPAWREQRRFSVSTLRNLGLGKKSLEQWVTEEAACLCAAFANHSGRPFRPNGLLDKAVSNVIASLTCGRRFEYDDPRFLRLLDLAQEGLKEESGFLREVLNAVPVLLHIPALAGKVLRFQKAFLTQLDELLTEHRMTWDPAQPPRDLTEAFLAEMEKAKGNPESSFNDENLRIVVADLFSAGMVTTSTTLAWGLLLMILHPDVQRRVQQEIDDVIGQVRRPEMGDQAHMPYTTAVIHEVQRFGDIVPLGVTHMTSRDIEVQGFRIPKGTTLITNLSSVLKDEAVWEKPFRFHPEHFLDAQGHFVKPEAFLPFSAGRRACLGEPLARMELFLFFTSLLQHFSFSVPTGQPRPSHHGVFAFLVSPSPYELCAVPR
# Rattus norvegicus [16] = assay: Antinociceptive efficacy against von Frey hair mechanically stimulated post-surgical pain after skin incision in rat assessed as withdrawal threshold at 10 umol/kg, ip; format: functional
# [17] = Selectivity ratio of Ki for human histamine H4 receptor to Ki for dopamine D2 receptor
# BMMC = assay: Blockade of histamine-induced morphological changes in BALB/c mouse BMMC by flow cytometry; format: functional, cell-based
# Rattus norvegicus [18] = assay: Antinociceptive efficacy against von Frey hair mechanically stimulated post-surgical pain after skin incision in rat assessed as withdrawal threshold at 100 umol/kg, ip; format: functional
# Histamine H4 receptor [19] = molecular target: T2, Histamine H4 receptor; assay: Antagonist activity at rat histamine H4 receptor expressed in HEK293 cells assessed as inhibition of histamine-induced intracellular calcium elevation by FLIPR assay; format: functional, cell-based
# [20] = molecular target: Cannabinoid receptor 1 (Homo sapiens) (UniProt P21554); assay: Binding affinity to CB1 receptor
# Chain of Cannabinoid receptor 1 (Homo sapiens) (P21554 whole entry): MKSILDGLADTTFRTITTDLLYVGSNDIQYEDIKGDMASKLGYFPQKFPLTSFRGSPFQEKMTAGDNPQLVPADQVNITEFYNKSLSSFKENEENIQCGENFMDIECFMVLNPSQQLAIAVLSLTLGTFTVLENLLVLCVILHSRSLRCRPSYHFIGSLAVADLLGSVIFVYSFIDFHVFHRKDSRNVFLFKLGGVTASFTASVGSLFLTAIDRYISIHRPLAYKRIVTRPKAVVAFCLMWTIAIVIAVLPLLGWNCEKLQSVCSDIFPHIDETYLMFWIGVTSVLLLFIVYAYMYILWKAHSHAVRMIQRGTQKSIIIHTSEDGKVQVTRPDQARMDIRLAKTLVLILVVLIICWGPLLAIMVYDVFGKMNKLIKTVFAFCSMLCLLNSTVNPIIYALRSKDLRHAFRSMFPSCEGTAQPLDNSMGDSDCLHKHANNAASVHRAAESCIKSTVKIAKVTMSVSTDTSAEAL
# [21] = Ratio of drug level in brain to plasma in rat at 10 mg/kg, iv after 30 mins; format: ADME, organism-based; parameters: dose 10 mg/kg, route intravenous
# Histamine H4 receptor [22] = molecular target: T3, Histamine H4 receptor (Homo sapiens, UniProt Q9H3N8); settings: HEK293
# T3 sequence (Q9H3N8 whole entry): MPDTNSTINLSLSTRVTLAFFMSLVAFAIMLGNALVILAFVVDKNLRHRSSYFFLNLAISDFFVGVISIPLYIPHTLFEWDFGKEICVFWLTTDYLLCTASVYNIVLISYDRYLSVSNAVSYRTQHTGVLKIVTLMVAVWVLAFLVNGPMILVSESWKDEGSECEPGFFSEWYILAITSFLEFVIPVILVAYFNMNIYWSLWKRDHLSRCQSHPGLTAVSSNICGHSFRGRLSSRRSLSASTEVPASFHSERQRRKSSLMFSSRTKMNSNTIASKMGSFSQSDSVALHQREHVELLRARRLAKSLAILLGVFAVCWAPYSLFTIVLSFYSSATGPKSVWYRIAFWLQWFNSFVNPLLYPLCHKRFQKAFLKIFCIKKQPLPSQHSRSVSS
# Histamine H4 receptor [23] = molecular target: T3, Histamine H4 receptor; assay: Displacement of [3H]histamine from human histamine H4 receptor expressed in HEK293 cells; format: cell-based; settings: read-out: Ki
# [24] = molecular target: Delta-type opioid receptor (Homo sapiens) (UniProt P41143); assay: Binding affinity to delta opioid receptor
# Chain of Delta-type opioid receptor (Homo sapiens) (P41143 whole entry): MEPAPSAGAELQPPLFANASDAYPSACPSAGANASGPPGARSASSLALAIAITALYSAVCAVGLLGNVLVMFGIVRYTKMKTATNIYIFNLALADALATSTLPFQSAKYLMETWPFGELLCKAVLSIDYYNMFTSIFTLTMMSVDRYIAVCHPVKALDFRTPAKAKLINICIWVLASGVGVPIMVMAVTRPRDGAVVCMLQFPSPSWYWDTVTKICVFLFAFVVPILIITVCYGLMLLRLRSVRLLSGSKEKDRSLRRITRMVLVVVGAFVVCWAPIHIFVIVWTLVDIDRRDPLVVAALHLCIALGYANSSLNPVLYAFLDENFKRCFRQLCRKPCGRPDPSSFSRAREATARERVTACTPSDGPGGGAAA
# Mus musculus [25] = assay: Inhibition of clobenpropit-induced itching in ip dosed CD1/ICR mouse assessed as blockade of scratching in hind paw for 25 mins pretreated 30 mins before clobenpropit challenge; format: functional
# [26] = Selectivity ratio of Ki for human histamine H4 receptor to Ki for histamine H2 receptor
# [27] = Selectivity ratio of Ki for human histamine H4 receptor to Ki for 5HT1A receptor
# Rattus norvegicus [28] = assay: Antinociceptive efficacy against complete Freund's adjuvant-induced thermal hyperalgesia in rat assessed as withdrawal threshold at 30 umol/kg, ip after 48 hrs; format: functional
# Cytochrome P450 3A4 = Cytochrome P450 3A4 (Homo sapiens, UniProt P08684); assay: Inhibition of CYP3A4 upto 10 uM; format: ADME
# Chain of Cytochrome P450 3A4 (P08684 whole entry): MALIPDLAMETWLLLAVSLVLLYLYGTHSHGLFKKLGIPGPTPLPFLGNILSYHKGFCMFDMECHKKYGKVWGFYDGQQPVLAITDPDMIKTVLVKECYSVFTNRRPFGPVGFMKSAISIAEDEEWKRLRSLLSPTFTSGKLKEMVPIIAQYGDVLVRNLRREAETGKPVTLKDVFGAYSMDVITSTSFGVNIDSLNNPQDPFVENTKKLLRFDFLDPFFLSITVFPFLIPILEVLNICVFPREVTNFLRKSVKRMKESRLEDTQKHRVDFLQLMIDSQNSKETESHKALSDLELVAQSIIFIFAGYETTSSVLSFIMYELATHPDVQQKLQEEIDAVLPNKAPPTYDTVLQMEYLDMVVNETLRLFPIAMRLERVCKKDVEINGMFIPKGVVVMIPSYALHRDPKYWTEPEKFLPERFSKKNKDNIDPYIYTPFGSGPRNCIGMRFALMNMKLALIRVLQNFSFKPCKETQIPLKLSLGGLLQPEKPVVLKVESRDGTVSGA
# [29] = molecular target: T4, Prostaglandin G/H synthase 2 (Homo sapiens) (UniProt P35354); assay: Binding affinity at COX2
# T4 sequence (whole entry): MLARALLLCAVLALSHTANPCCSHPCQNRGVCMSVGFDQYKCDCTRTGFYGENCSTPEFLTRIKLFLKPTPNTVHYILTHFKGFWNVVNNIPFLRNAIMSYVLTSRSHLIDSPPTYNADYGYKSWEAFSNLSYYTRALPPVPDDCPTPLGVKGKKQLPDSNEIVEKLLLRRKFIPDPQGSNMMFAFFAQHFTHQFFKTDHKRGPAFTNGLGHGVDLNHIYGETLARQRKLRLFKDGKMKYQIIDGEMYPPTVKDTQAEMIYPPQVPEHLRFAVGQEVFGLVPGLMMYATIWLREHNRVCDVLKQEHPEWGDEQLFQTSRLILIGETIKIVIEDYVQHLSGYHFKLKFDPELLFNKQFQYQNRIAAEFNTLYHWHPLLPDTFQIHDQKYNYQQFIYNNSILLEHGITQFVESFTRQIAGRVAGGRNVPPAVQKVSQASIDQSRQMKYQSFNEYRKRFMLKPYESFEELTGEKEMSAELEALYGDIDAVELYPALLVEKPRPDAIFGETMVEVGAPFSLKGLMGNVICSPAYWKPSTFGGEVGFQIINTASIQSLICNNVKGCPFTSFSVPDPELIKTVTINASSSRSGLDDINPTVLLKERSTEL
# [30] = Selectivity ratio of Ki for human histamine H4 receptor to Ki for histamine H1 receptor
# [31] = Selectivity ratio of Ki for human histamine H4 receptor to Ki for 5HT2A receptor
# Liver microsomes [32] = assay: Metabolic stability in rat liver microsomes; format: ADME, Microsome
# [33] = molecular target: Cannabinoid receptor 2 (Homo sapiens) (UniProt P34972); assay: Binding affinity to CB2 receptor
# Chain of Cannabinoid receptor 2 (Homo sapiens) (P34972 whole entry): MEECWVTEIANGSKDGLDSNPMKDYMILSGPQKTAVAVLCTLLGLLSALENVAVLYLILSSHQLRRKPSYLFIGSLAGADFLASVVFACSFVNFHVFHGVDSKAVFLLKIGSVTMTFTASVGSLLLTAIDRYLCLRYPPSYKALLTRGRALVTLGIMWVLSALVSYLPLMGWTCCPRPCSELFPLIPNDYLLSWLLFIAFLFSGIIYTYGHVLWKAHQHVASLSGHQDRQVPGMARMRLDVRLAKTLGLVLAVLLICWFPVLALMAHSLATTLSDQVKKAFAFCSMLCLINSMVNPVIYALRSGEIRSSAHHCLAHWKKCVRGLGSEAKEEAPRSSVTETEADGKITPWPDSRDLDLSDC
# [34] = Selectivity ratio of Ki for human histamine H4 receptor to Ki for adrenergic alpha1 receptor
# Rattus norvegicus [35] = assay: Antinociceptive efficacy against complete Freund's adjuvant-induced thermal hyperalgesia in rat assessed as withdrawal threshold at 100 umol/kg, ip after 48 hrs; format: functional
# Rattus norvegicus [36] = assay: Antinociceptive efficacy in spinal nerve ligated Sprague-Dawley rat assessed as reduction of neuropathic pain in left side paw at 100 umol/kg, ip administered 30 mins before testing relative to control; format: functional
# Rattus norvegicus [37] = assay: Antinociceptive efficacy in spinal nerve ligated Sprague-Dawley rat assessed as reduction of neuropathic pain in left side paw at 300 umol/kg, ip administered 30 mins before testing relative to control; format: functional
# Rattus norvegicus [38] = assay: Antinociceptive efficacy in rat assessed as inhibition of carrageenan-induced inflammatory pain in paw at 100 umol/kg, ip after 30 mins by hotbox assay relative to control; format: functional
Structure (SMILES),Stability (Liver microsomes [1]),Ratio Ki (Homo sapiens),fraction unbound [3],Activity [4],ED50 (Mus musculus [7]),Stability [8],Activity [9],EC50 (Histamine H4 receptor [10]),Activity [11],fraction unbound [12],Activity (Cytochrome P450 2C9),Ki (Histamine H4 receptor [14]),Ratio Ki [15],Activity (Cytochrome P450 2D6),Ratio Ki [17],Activity (BMMC),EC50 (Histamine H4 receptor [19]),Activity [20],Kp at 0.5 h [21],pKb (Histamine H4 receptor [22]),other results
CN[C@@H]1CCN(c2nc(N)nc3c2CCCc2ccccc2-3)C1,20.7 pmol/min/mg,570,0.43,inactive,100 µmol/kg,29.7 pmol/min/mg,inactive,4.37 nM,inactive,0.51,Not Active,5.13 nM,235,Not Active,1820,Active,6.61 nM,inactive,3,8.21,Efficacy (Rattus norvegicus [2]): 21%; Efficacy (Rattus norvegicus [5]): 79%; Efficacy (Rattus norvegicus [6]): 55%; Efficacy (Rattus norvegicus [13]): 34%; Efficacy (Rattus norvegicus [16]): 9%; Efficacy (Rattus norvegicus [18]): 69%; Ki (Histamine H4 receptor [23]): 3.5 nM; Activity [24]: inactive; ED50 (Mus musculus [25]): 235 µmol/kg; Ratio Ki [26]: > 1300; Ratio Ki [27]: 460; Efficacy (Rattus norvegicus [28]): 35%; Activity (Cytochrome P450 3A4): Not Active; Activity [29]: inactive; Ratio Ki [30]: > 1890; Ratio Ki [31]: 2030; Stability (Liver microsomes [32]): 173 pmol/min/mg; Activity [33]: inactive; Ratio Ki [34]: 150; Efficacy (Rattus norvegicus [35]): 49%
CNC1CN(c2nc(N)nc3c2CCCc2ccccc2-3)C1,20 pmol/min/mg,93,0.56,inactive,17 µmol/kg,38.8 pmol/min/mg,inactive,9.12 nM,inactive,0.52,Not Active,3.63 nM,310,Not Active,123,Active,9.33 nM,inactive,5.8,8.05,Efficacy (Rattus norvegicus [36]): 36%; Ki (Histamine H4 receptor [23]): 11 nM; Activity [24]: inactive; ED50 (Mus musculus [25]): 25 µmol/kg; Efficacy (Rattus norvegicus [37]): 78%; Ratio Ki [26]: > 860; Ratio Ki [27]: 940; Activity (Cytochrome P450 3A4): Not Active; Activity [29]: inactive; Ratio Ki [30]: > 610; Ratio Ki [31]: 235; Stability (Liver microsomes [32]): 165 pmol/min/mg; Activity [33]: inactive; Ratio Ki [34]: 215; Efficacy (Rattus norvegicus [38]): 39%
